Measured values taken from patent publication US10550111B2, “Pyrimidine urea compound containing isoxazolines and use thereof” (SHENYANG SINOCHEM AGROCHEMICALS R&D CO., LTD, priority 2014, dated 2020).

How the values were obtained:
Cyperus glomeratus L. = experiment: Weed spectrum study in greenhouse; format: in vivo
Source text: Seeds of monocotyledonous and dicotyledonous weeds were sown in nutrition soil in paper pot (7 cm diameter), covered with soil in 1 cm and grown in the greenhouse under good growth conditions (temperature, atmospheric humidity, water supply). The compounds of the present invention as emulsifiable concentrate, were applied in pre-emergence and post-emergence treatment by track sprayer (Engineer Research Ltd., pressure 1.95 kg/cm^2, volume 500 L/hm^2, track speed 1.48 km/h). Pre-emergence treatment was conducted after seeding 24 hours and post-emergence treatment was done when the respective weeds reached predetermined leaf stage ([…]), the state of growth of the respective weeds were visually observed to determine the growth inhibition rate (%) in accordance with the following evaluation standard.
(§1) Growth inhibition rate (%): 0=no discernible action: 100=all weeds dead or not emerged.
(§2) The method is as example 18.

broad-leaf weeds = experiment: Field trial, weed control in orchard (non-cultivated land); format: in vivo
Experimental: (§3) The field trial was conducted in an orchard located at Liaoyang city, Liaoning province, China; the orchard planted mainly apple trees and almond trees, plum trees and pear trees as well, weeding control were conducted three times one year by application of paraquat. Weeds were distributed uniformity and moderate density, mainly of broad-leaf weeds including Conyza canadensis (L.)Cronq., Sonchus brachyotus DC., Polygonum aviculare L., Humulus scandens (Lour.) Merr., Ixeridium sonchifolium (Maxim.) Shih, Galium aparine L. var. tenerum Gren. et (Godr.) Rebb., Rumex japonicus Houtt. and Metaplexis japonica (Thunb.) Makino, partly of grass weed was Digitaria sanguinalis (L.) Scop., average height range was between 30 and 40 cm. sprayer was knapsack hand-operated sprayer(AGROLEX HD400) produced by AGROLEx PTE Ltd., spray volume was 675 L/hm^2, processing date was Jul. 3, 2015. On the 15th day after application, weeds were visually observed to determine the growth inhibition rate (%).

weeds = experiment: as above; format: in vivo
Experimental: as §3

Cyperus difformis L. = experiment: Weed spectrum study in greenhouse; format: in vivo
Source text: (§4) Seeds of monocotyledonous and dicotyledonous weeds were sown in nutrition soil in paper pot (7 cm diameter), covered with soil in 1 cm and grown in the greenhouse under good growth conditions (temperature, atmospheric humidity, water supply). The compounds of the present invention as emulsifiable concentrate, were applied in pre-emergence and post-emergence treatment by track sprayer (Engineer Research Ltd., pressure 1.95 kg/cm^2, volume 500 L/hm^2, track speed 1.48 km/h). Pre-emergence treatment was conducted after seeding 24 hours and post-emergence treatment was done when the respective weeds reached predetermined leaf stage (grass weed 2- to 3-leaf stage, broad-leaf weed 2- to 4-leaf stage), the state of growth of the respective weeds were visually observed to determine the growth inhibition rate (%) in accordance with the following evaluation standard.
as §1, §2

[1] = test system: Arthraxon hispidus (Thunb.) Makino; experiment: Weed spectrum study in greenhouse; format: in vivo
Source text: as §4, §1, §2

[2] = test system: broad-leaf weeds and grass weeds; experiment: General screening of herbicidal activity in greenhouse; format: in vivo; conditions: 1000 g a.i./hm^2
Method in brief: (§5)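 Visual growth inhibition rating (0 no effect to 100 all weeds dead or not emerged) after track-sprayer application (500 L/hm²) of emulsifiable concentrate. Treatments either pre-emergence, 24 h after sowing, or post-emergence at 2–3-leaf grass and 2–4-leaf broad-leaf stage, greenhouse-grown.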

[3] = test system: Echinochloa crus-galli (L.) Beauv.; experiment: Bioassay of herbicidal activity in greenhouse (further screening); format: in vivo
Method in brief: as §5

[4] = test system: Abutilon theophrasti Medic.; experiment: as above; format: in vivo
Method in brief: as §5

[5] = test system: Setaria glauca (L.) Beauv.; experiment: as above; format: in vivo
Method in brief: as §5

Zinnia elegans Jacq. = experiment: as above; format: in vivo
Method in brief: as §5

[6] = test system: Digitaria sanguinalis (L.); experiment: Weed spectrum study in greenhouse; format: in vivo
Source text: as §4, with “([…],” for “(grass weed 2- to 3-leaf stage,”
as §1, §2

grass weed = experiment: Field trial, weed control in orchard (non-cultivated land); format: in vivo, Digitaria sanguinalis (L.) Scop.
Experimental: as §3

[7] = test system: Amaranthus retroflexus L.; experiment: Weed spectrum study in greenhouse; format: in vivo
Source text: as §4, with “[…]),” for “broad-leaf weed 2- to 4-leaf stage),”
as §1, §2

[8] = dose 60 g a.i./hm^2, 15th day after application
[9] = dose 120 g a.i./hm^2, 15th day after application
[10] = dose 180 g a.i./hm^2, 15th day after application
[11] = dose 240 g a.i./hm^2, 15th day after application
[12] = dose 300 g a.i./hm^2, 15th day after application
[13] = pre-emergence, dose 600 g a.i./hm^2

CCOC(=O)C1(C)CC(c2cc(-n3c(=O)cc(C(F)(F)F)n(C)c3=O)c(F)cc2Cl)=NO1 (stereo not drawn) [Compound 6]
98%: Growth inhibition rate, Post-emergence treatment, Echinochloa crus-galli (L.) Beauv. ([3]; dose 15 g a.i./hm^2) | Growth inhibition rate, Post-emergence treatment, Echinochloa crus-galli (L.) Beauv. ([3]; dose 30.0 g a.i./hm^2) | Growth inhibition rate, Post-emergence treatment, Setaria glauca (L.) Beauv. ([5]; dose 15 g a.i./hm^2) | Growth inhibition rate, Post-emergence treatment, Zinnia elegans Jacq. (Zinnia elegans Jacq.; dose 15 g a.i./hm^2) | Growth inhibition rate, Amaranthus retroflexus L. (height 10-15 cm) ([7]; dose 15 g a.i./hm^2)
100%: Growth inhibition rate, Cyperus glomeratus L. (5-leaf stage) (Cyperus glomeratus L.; dose 60 g a.i./hm^2) | Growth inhibition rate, Cyperus glomeratus L. (5-leaf stage) (Cyperus glomeratus L.; dose 120 g a.i./hm^2) | Growth inhibition rate, Cyperus difformis L. (4,5-leaf stage) (Cyperus difformis L.; dose 120 g a.i./hm^2) | Growth inhibition rate, Arthraxon hispidus (Thunb.) Makino (3-leaf stage) ([1]; dose 60 g a.i./hm^2) | Growth inhibition rate, Arthraxon hispidus (Thunb.) Makino (3-leaf stage) ([1]; dose 120 g a.i./hm^2) | Growth inhibition rate, Post-emergence treatment, Echinochloa crus-galli (L.) Beauv. ([3]; dose 60.0 g a.i./hm^2) | Growth inhibition rate, Post-emergence treatment, Echinochloa crus-galli (L.) Beauv. ([3]; dose 120.0 g a.i./hm^2) | Growth inhibition rate, Post-emergence treatment, Echinochloa crus-galli (L.) Beauv. ([3]; dose 600 g a.i./hm^2) | Growth inhibition rate, Post-emergence treatment, Abutilon theophrasti Medic. ([4]; dose 7.5 g a.i./hm^2) | Growth inhibition rate, Post-emergence treatment, Abutilon theophrasti Medic. ([4]; dose 15 g a.i./hm^2) | Growth inhibition rate, Post-emergence treatment, Abutilon theophrasti Medic. ([4]; dose 30.0 g a.i./hm^2) | Growth inhibition rate, Post-emergence treatment, Abutilon theophrasti Medic. ([4]; dose 60.0 g a.i./hm^2) | Growth inhibition rate, Post-emergence treatment, Abutilon theophrasti Medic. ([4]; dose 120.0 g a.i./hm^2) | Growth inhibition rate, Post-emergence treatment, Abutilon theophrasti Medic. ([4]; dose 600 g a.i./hm^2) | Growth inhibition rate, Pre-emergence treatment, Abutilon theophrasti Medic. [4, 13] | Growth inhibition rate, Post-emergence treatment, Setaria glauca (L.) Beauv. ([5]; dose 60.0 g a.i./hm^2) | Growth inhibition rate, Post-emergence treatment, Setaria glauca (L.) Beauv. ([5]; dose 120.0 g a.i./hm^2) | Growth inhibition rate, Post-emergence treatment, Setaria glauca (L.) Beauv. ([5]; dose 600 g a.i./hm^2) | Growth inhibition rate, Post-emergence treatment, Zinnia elegans Jacq. (Zinnia elegans Jacq.; dose 30.0 g a.i./hm^2) | Growth inhibition rate, Post-emergence treatment, Zinnia elegans Jacq. (Zinnia elegans Jacq.; dose 60.0 g a.i./hm^2) | Growth inhibition rate, Post-emergence treatment, Zinnia elegans Jacq. (Zinnia elegans Jacq.; dose 120.0 g a.i./hm^2) | Growth inhibition rate, Post-emergence treatment, Zinnia elegans Jacq. (Zinnia elegans Jacq.; dose 600 g a.i./hm^2) | Growth inhibition rate, Digitaria sanguinalis (L.) (4,5-leaf stage) ([6]; dose 30 g a.i./hm^2) | Growth inhibition rate, Digitaria sanguinalis (L.) (4,5-leaf stage) ([6]; dose 60 g a.i./hm^2) | Growth inhibition rate, Digitaria sanguinalis (L.) (4,5-leaf stage) ([6]; dose 120 g a.i./hm^2) | Growth inhibition rate, Amaranthus retroflexus L. (height 10-15 cm) ([7]; dose 30 g a.i./hm^2) | Growth inhibition rate, Amaranthus retroflexus L. (height 10-15 cm) ([7]; dose 60 g a.i./hm^2) | Growth inhibition rate, Amaranthus retroflexus L. (height 10-15 cm) ([7]; dose 120 g a.i./hm^2)
61.7%: Growth inhibition rate (%) of grass weed (grass weed; [8])
81.7%: Total growth inhibition rate (%) of weeds (weeds; [8])
60%: Growth inhibition rate, Cyperus difformis L. (4,5-leaf stage) (Cyperus difformis L.; dose 15 g a.i./hm^2) | Growth inhibition rate, Arthraxon hispidus (Thunb.) Makino (3-leaf stage) ([1]; dose 7.5 g a.i./hm^2)
30%: Growth inhibition rate, Cyperus difformis L. (4,5-leaf stage) (Cyperus difformis L.; dose 7.5 g a.i./hm^2)
83.3%: Growth inhibition rate (%) of grass weed (grass weed; [10])
55%: Growth inhibition rate, Pre-emergence treatment, Setaria glauca (L.) Beauv. [5, 13] | Growth inhibition rate, Pre-emergence treatment, Zinnia elegans Jacq. (Zinnia elegans Jacq.; [13])
98.7%: Total growth inhibition rate (%) of weeds (weeds; [12])
95%: Growth inhibition rate, Cyperus difformis L. (4,5-leaf stage) (Cyperus difformis L.; dose 60 g a.i./hm^2) | Growth inhibition rate, Post-emergence treatment, Setaria glauca (L.) Beauv. ([5]; dose 30.0 g a.i./hm^2) | Growth inhibition rate, Post-emergence treatment, Zinnia elegans Jacq. (Zinnia elegans Jacq.; dose 7.5 g a.i./hm^2)
85.0%: Growth inhibition rate (%) of broad-leaf weeds (broad-leaf weeds; [8])
80%: Growth inhibition rate, Cyperus glomeratus L. (5-leaf stage) (Cyperus glomeratus L.; dose 7.5 g a.i./hm^2) | Growth inhibition rate, Cyperus glomeratus L. (5-leaf stage) (Cyperus glomeratus L.; dose 15 g a.i./hm^2) | Growth inhibition rate, Digitaria sanguinalis (L.) (4,5-leaf stage) ([6]; dose 7.5 g a.i./hm^2)
91.7%: Total growth inhibition rate (%) of weeds (weeds; [9]) | Total growth inhibition rate (%) of weeds (weeds; [10])
93.3%: Growth inhibition rate (%) of broad-leaf weeds (broad-leaf weeds; [9]) | Total growth inhibition rate (%) of weeds (weeds; [11])
97.0%: Growth inhibition rate (%) of broad-leaf weeds (broad-leaf weeds; [11])
85%: Growth inhibition rate, Arthraxon hispidus (Thunb.) Makino (3-leaf stage) ([1]; dose 15 g a.i./hm^2) | Growth inhibition rate, Post-emergence treatment, Setaria glauca (L.) Beauv. ([5]; dose 7.5 g a.i./hm^2)
88.3%: Growth inhibition rate (%) of grass weed (grass weed; [11])
good: pre-emergence and post-emergence herbicidal activity against broad-leaf weeds and grass weeds [2]
94.3%: Growth inhibition rate (%) of broad-leaf weeds (broad-leaf weeds; [10]) | Growth inhibition rate (%) of grass weed (grass weed; [12])
71.7%: Growth inhibition rate (%) of grass weed (grass weed; [9])
92.7%: Growth inhibition rate (%) of broad-leaf weeds (broad-leaf weeds; [12])
70%: Growth inhibition rate, Post-emergence treatment, Echinochloa crus-galli (L.) Beauv. ([3]; dose 7.5 g a.i./hm^2) | Growth inhibition rate, Pre-emergence treatment, Echinochloa crus-galli (L.) Beauv. [3, 13]
90%: Growth inhibition rate, Cyperus glomeratus L. (5-leaf stage) (Cyperus glomeratus L.; dose 30 g a.i./hm^2) | Growth inhibition rate, Cyperus difformis L. (4,5-leaf stage) (Cyperus difformis L.; dose 30 g a.i./hm^2) | Growth inhibition rate, Arthraxon hispidus (Thunb.) Makino (3-leaf stage) ([1]; dose 30 g a.i./hm^2) | Growth inhibition rate, Digitaria sanguinalis (L.) (4,5-leaf stage) ([6]; dose 15 g a.i./hm^2) | Growth inhibition rate, Amaranthus retroflexus L. (height 10-15 cm) ([7]; dose 7.5 g a.i./hm^2)
